From ChEMBL document CHEMBL4680301, “Development of a novel acetyl glucose-modified gefitinib derivative to enhance the radiosensitizing effect” (Bioorg Med Chem, 2021)
Active and inactive are the calls of the source. No cut-off for these calls is given here.

Experiments:
A-431 [1] = test: Cytotoxicity against human A431 cells measured after 24 hrs by WST-1 assay; type: functional, cell-based; conditions: A-431, 24 h
A-431 [2] = test: Radio-sensitinzing effect in human A431 cells assessed as reduction in surviving fraction incubated at 1 uM for 24 hrs with X-ray followed by measured after 7 days by Giemsa staining relative to control; type: functional; conditions: time 8 day
[3] = Drug metabolism in human A431 cells assessed as 4-((4-((3-Chloro-4-fluorophenyl)amino)-6-(3-morpholinopropoxy)quinazolin-7-yl)oxy)butan-1-ol metabolite formation at 3 uM measured after 24 hrs by HPLC analysis; type: ADME, cell-based; conditions: a-431, 24 h
[4] = Drug metabolism in human A431 cells assessed as 3-((4-((3-Chloro-4-fluorophenyl)amino)-6-(3-morpholinopropoxy)quinazolin-7-yl)oxy)propan-1-ol metabolite formation at 3 uM measured after 24 hrs by HPLC analysis; type: ADME, cell-based; conditions: a-431, 24 h
HepG2 [5] = test: Inhibition of GLUT in human HepG2 cells assessed as inhibition of 2-NBDG uptake at 10 uM incubated for 20 mins by fluorescence microplate reader; type: cell-based
[6] = Drug metabolism in human A431 cells assessed as 2-((4-((3-Chloro-4-fluorophenyl)amino)-6-(3-morpholinopropoxy)quinazolin-7-yl)oxy)ethan-1-ol metabolite formation at 3 uM measured after 24 hrs by HPLC analysis; type: ADME, cell-based; conditions: a-431, 24 h
HepG2 [7] = test: Inhibition of GLUT in human HepG2 cells assessed as inhibition of 2-NBDG uptake incubated for 20 mins by fluorescence microplate reader; type: cell-based; conditions: dose 10-30 µM

| SMILES | IC50 (A-431 [1]) | fold change (FC) (A-431 [2]) | Drug metabolism [3] | Drug metabolism [4] | inhibition (HepG2 [5]) | Drug metabolism [6] | inhibition (HepG2 [7]) |
| --- | --- | --- | --- | --- | --- | --- | --- |
| CC(=O)OC[C@H]1OC(OCCCCOc2cc3ncnc(Nc4ccc(F)c(Cl)c4)c3cc2OCCCN2CCOCC2)[C@H](OC(C)=O)[C@@H](OC(C)=O)[C@@H]1OC(C)=O (stereo partly specified) | 39.4 µM | 0.202 | Metabolite_Detected | – | – | – | – |
| CC(=O)OC[C@H]1OC(OCCCOc2cc3ncnc(Nc4ccc(F)c(Cl)c4)c3cc2OCCCN2CCOCC2)[C@H](OC(C)=O)[C@@H](OC(C)=O)[C@@H]1OC(C)=O (stereo partly specified) | 36.8 µM | 0.216 | – | Metabolite_Detected | – | – | – |
| C=C1[C@@H](C)[C@H]2[C@H](Cc3ccccc3)NC(=O)[C@]23OC(=O)/C=C/[C@H](O)CCC[C@@H](C)C/C=C/[C@H]3[C@@H]1O | – | – | – | – | Active | – | – |
| CC(=O)OC[C@H]1OC(OCCOc2cc3ncnc(Nc4ccc(F)c(Cl)c4)c3cc2OCCCN2CCOCC2)[C@H](OC(C)=O)[C@@H](OC(C)=O)[C@@H]1OC(C)=O (stereo partly specified) | 34.3 µM | 0.175 | – | – | – | Metabolite_Detected | Dose-dependent effect |
